Source: article PMC6004087, “Production of the compatible solute α-D-glucosylglycerol by metabolically engineered Corynebacterium glutamicum” (Microbial Cell Factories, 2018)

Target: T1, OtsA (trehalose 6-phosphate synthase; OtsA-Strep) (Corynebacterium glutamicum, UniProt Q8NMF3)
T1 construct: gene Cgl2624; full-length OtsA with C-terminal Strep-tag kept (pASK-IBA3-otsA), expressed in E. coli BL21(DE3), Strep-Tactin purified, 53 kDa
T1 sequence (Q8NMF3 1-485): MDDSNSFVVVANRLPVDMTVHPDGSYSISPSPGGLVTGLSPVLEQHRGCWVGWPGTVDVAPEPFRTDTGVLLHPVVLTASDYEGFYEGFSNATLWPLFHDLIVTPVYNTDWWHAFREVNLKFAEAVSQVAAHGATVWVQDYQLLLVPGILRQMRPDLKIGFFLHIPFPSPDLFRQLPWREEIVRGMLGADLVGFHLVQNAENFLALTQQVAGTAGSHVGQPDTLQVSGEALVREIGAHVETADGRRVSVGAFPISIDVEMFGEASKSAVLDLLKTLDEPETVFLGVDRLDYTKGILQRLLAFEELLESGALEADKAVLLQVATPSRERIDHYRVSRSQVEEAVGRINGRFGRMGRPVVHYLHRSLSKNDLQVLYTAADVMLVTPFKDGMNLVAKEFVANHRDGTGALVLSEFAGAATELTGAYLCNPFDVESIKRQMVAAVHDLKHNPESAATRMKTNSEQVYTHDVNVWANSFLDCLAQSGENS
Assay: GC of trehalose after alkaline phosphatase treatment of trehalose-6-phosphate
Assay type: biochemical
Conditions: co-substrate 3 mM glucose-6-phosphate; 10 mM Tris-maleate, 5 mM MgCl2, 0.05 mM EDTA, pH 7.5, 30 °C; 3 mM or 5 mM sugar nucleotide

Nc1ncnc2c1ncn2[C@@H]1O[C@H](COP(=O)(O)OP(=O)(O)O[C@H]2O[C@H](CO)[C@@H](O)[C@H](O)[C@H]2O)[C@@H](O)[C@H]1O [ADP-glucose]
specific activity: C. glutamicum OtsA used UDP- as well as ADP-glucose as precursor for trehalose-phosphate synthesis
